In PubChem BioAssay (NCI) one finds GI50 and TGI data, which are given here for eleven compounds.

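Protocol summary: plate cells (96-well), add compound at 5 concentrations, incubate 48 h, interpolate endpoints linearly. GI50 marks 50% less growth. The concentration for full growth arrest is given as TGI.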

Test systems include MALME-3M melanoma; SR leukemia; UACC-62 melanoma; K-562 leukemia; 786-0 renal; SNB-19 CNS; NCI-H522 lung; OVCAR-4 ovarian; HS 578T breast; SNB-75 CNS.
Common to all, as to assay: growth of human tumour cells (NCI), 48 h

With `O=C(Cn1c(=O)c(-c2ccccc2)nc2ccccc21)c1ccc(Cl)cc1`, the GI50 with MALME-3M melanoma is > 100 µM; in the experiment with SR leukemia, 37.1 µM; with UACC-62 melanoma it was > 100 µM; with K-562 leukemia it was > 100 µM; with 786-0 renal, 27 µM; in the experiment with SNB-19 CNS, 42.2 µM. Further, the GI50 is > 100 µM with NCI-H522 lung, 33.4 µM in the experiment on OVCAR-4 ovarian and 43.5 µM in the experiment on HS 578T breast. The TGI in the experiment with MALME-3M melanoma was > 100 µM; with SR leukemia, > 100 µM; in the experiment on UACC-62 melanoma, > 100 µM; in the experiment on K-562 leukemia, > 100 µM; in the experiment on 786-0 renal it was 86.6 µM; in the experiment on SNB-19 CNS, > 100 µM. Also, the TGI in the experiment on NCI-H522 lung, in the experiment with OVCAR-4 ovarian and with HS 578T breast was > 100 µM each time.
In the case of `O=C1c2cccc3cc([N+](=O)[O-])cc(c23)C(=O)N1NC1=NCCN1`, the TGI with MALME-3M melanoma, in the experiment on SR leukemia, with UACC-62 melanoma, with K-562 leukemia, in the experiment on 786-0 renal and with SNB-19 CNS was > 100 µM in each case. Further, the TGI in the experiment on NCI-H522 lung, with OVCAR-4 ovarian and with SNB-75 CNS was > 100 µM in each case.
For the compound `CC(=O)Nc1ccc(-c2c3nc(c(-c4cc5ccccc5[n+](C)c4)c4ccc([nH]4)c(-c4ccc(NC(C)=O)cc4)c4nc(c(-c5cc6ccccc6[n+](C)c5)c5ccc2[nH]5)C=C4)C=C3)cc1`, the GI50 with MALME-3M melanoma was 16.9 µM; in the experiment on UACC-62 melanoma, 23.9 µM; in the experiment with K-562 leukemia it was 20.1 µM; with 786-0 renal, 9.97 µM; in the experiment with SNB-19 CNS, 10.9 µM; in the experiment with NCI-H522 lung, 14.6 µM. For the same compound, the GI50 in the experiment with OVCAR-4 ovarian was 3.76 µM; in the experiment with HS 578T breast, 22.9 µM; with SNB-75 CNS, 2.17 µM. The TGI in the experiment with MALME-3M melanoma is > 50 µM; in the experiment on UACC-62 melanoma, > 50 µM; in the experiment with K-562 leukemia it was > 50 µM; in the experiment with 786-0 renal, 35.6 µM; in the experiment with SNB-19 CNS it was 49.1 µM; in the experiment on NCI-H522 lung it was > 50 µM. Also, the TGI in the experiment on OVCAR-4 ovarian is 30.3 µM; in the experiment with HS 578T breast, > 50 µM; in the experiment with SNB-75 CNS it was 11.7 µM.
Consider `N#CCCN(CCC#N)C(=O)c1cccc(C(=O)N(CCC#N)CCC#N)c1`, for which the TGI in the experiment on MALME-3M melanoma is > 100 µM; in the experiment with SR leukemia, > 68.4 µM; in the experiment on UACC-62 melanoma, > 61.2 µM; in the experiment with K-562 leukemia it was > 100 µM; with 786-0 renal, > 100 µM; with SNB-19 CNS, > 100 µM. For the same compound, the results for the TGI in the experiment on NCI-H522 lung, in the experiment with OVCAR-4 ovarian and in the experiment on SNB-75 CNS were > 100 µM, > 100 µM and > 59.3 µM, respectively.
Regarding `O=C(CCN1CCOCC1)Nc1ccc(F)cc1F`, the TGI in the experiment with MALME-3M melanoma, in the experiment on SR leukemia, in the experiment on UACC-62 melanoma, in the experiment on K-562 leukemia, in the experiment with 786-0 renal and in the experiment on SNB-19 CNS was > 100 µM throughout. The TGI in the experiment with NCI-H522 lung, with OVCAR-4 ovarian and in the experiment on HS 578T breast was > 100 µM in each case.
Regarding `[N-]=[N+]=Nc1ccc(CCN2CCN(c3cccc(C(F)(F)F)c3)CC2)cc1I`, the TGI in the experiment with MALME-3M melanoma, with SR leukemia, in the experiment on UACC-62 melanoma, in the experiment with K-562 leukemia, with 786-0 renal and with SNB-19 CNS was > 100 µM each time. For the same compound, the TGI in the experiment on NCI-H522 lung, with OVCAR-4 ovarian and in the experiment on SNB-75 CNS was > 100 µM each time.
Turning to `CN1CCN(CCCOc2cccc3nc(Nc4ccc(Cl)c(F)c4)ccc23)CC1`, the GI50 was 1.92 µM in the experiment with MALME-3M melanoma; 2.05 µM in the experiment on UACC-62 melanoma; 1.67 µM with 786-0 renal; 1.86 µM in the experiment with SNB-19 CNS; 1.75 µM in the experiment with NCI-H522 lung; 3.13 µM with OVCAR-4 ovarian. For the same compound, the GI50 in the experiment with HS 578T breast was 2.12 µM. The TGI is 4.05 µM in the experiment with MALME-3M melanoma; 4.1 µM in the experiment with UACC-62 melanoma; 3.22 µM in the experiment with 786-0 renal; 3.53 µM with SNB-19 CNS; 3.33 µM with NCI-H522 lung; 12.4 µM with OVCAR-4 ovarian. The compound also gave a TGI in the experiment with HS 578T breast of 5.77 µM.
Regarding `CC1(C)OC(=O)[C@@](C)([C@H](O)c2ccccc2)O1`, the TGI with MALME-3M melanoma, with SR leukemia, in the experiment on UACC-62 melanoma, with K-562 leukemia, with 786-0 renal and in the experiment on SNB-19 CNS was > 100 µM throughout. The TGI with NCI-H522 lung, with OVCAR-4 ovarian and in the experiment with SNB-75 CNS was > 100 µM each time.
For the compound `Cc1ccc(NC(=O)CC/C(CC(=O)C(C)(C)C)=N/NC(=O)C(N)=O)cc1C`, the TGI in the experiment on MALME-3M melanoma, in the experiment on SR leukemia, in the experiment on UACC-62 melanoma, in the experiment with K-562 leukemia, with 786-0 renal and with SNB-19 CNS was > 100 µM in each case. For the same compound, the TGI in the experiment with NCI-H522 lung, with OVCAR-4 ovarian and with SNB-75 CNS was > 100 µM each time.
As to `COc1cc2c(c(OC)c1OC)C(=O)CC(c1cccc(NC(=O)c3ccc(Br)cc3)c1)O2` (centres undefined), the GI50 in the experiment with MALME-3M melanoma is 1.47 µM; in the experiment on UACC-62 melanoma it was 1.57 µM; in the experiment with K-562 leukemia, 1.4 µM; in the experiment with 786-0 renal, 2.97 µM; with SNB-19 CNS, 4.25 µM; in the experiment on NCI-H522 lung, 1.49 µM. The GI50 was 1.6 µM in the experiment with OVCAR-4 ovarian and 4.1 µM in the experiment on HS 578T breast. The TGI with MALME-3M melanoma is 7.39 µM; in the experiment with UACC-62 melanoma, 4.09 µM; in the experiment with K-562 leukemia it was > 100 µM; in the experiment on 786-0 renal, > 100 µM; with SNB-19 CNS, > 100 µM; in the experiment on NCI-H522 lung, 6.43 µM. Besides, the TGI with OVCAR-4 ovarian and with HS 578T breast was > 100 µM each time.
Regarding `N#CNC(N)=NCCO`, the TGI in the experiment with MALME-3M melanoma was > 100 µM; with SR leukemia, 86.2 µM; in the experiment with UACC-62 melanoma it was > 100 µM; in the experiment on K-562 leukemia, > 100 µM; in the experiment on 786-0 renal, > 100 µM; in the experiment with SNB-19 CNS, > 100 µM. For the same compound, the TGI in the experiment on NCI-H522 lung, in the experiment on OVCAR-4 ovarian and in the experiment on SNB-75 CNS was > 100 µM throughout.
